Experimental data: patent US10577387B1, “Platinum (II) complexes containing N-heterocyclic carbene ligand and pincer ligands, synthesis, and their applications in cancer treatment” (priority 2018, dated 2020)

Assays:
MDA-MB-231 cells [1] = experiment: Transwell invasion assay; format: cell-based, human; details: for inhibition of invasion, agent alone: 1b at sub-cytotoxic concentration, LY294002 or U0126 10 or 20 μM
MDA-MB-231 = experiment: MTT assay, in vitro cytotoxicity / cell growth; format: cell-based, human; details: for cell growth inhibition, agent alone: 1b at sub-cytotoxic concentration, LY294002 or U0126 10 or 20 μM
MDA-MB-231 cells [2] = experiment: Wound closure (scratch) migration assay; format: cell-based, human; details: for inhibition of migration, agent alone: 1b at sub-cytotoxic concentration, LY294002 or U0126 10 or 20 μM
Procedure: MDA-MB-231 cells were cultured in 6-well plate and allowed to form a confluent monolayer for 24 h. After serum starved for 4 h, cells were scratched by pipette tips, washed with PBS and photographed by using a fluorescence microscope (20× objective). The fresh medium supplemented with 10 vol % FBS was added into each well with different concentrations of Pt complex. After incubated for 24 h, cells were photographed again at three random areas. Then the migrated cells were quantified by manual counting and inhibition ratio was expressed as % of control.

MDA-MB-231 xenografts = experiment: In vivo tumor growth inhibition; design: species or system nude mice; details: 5 and 2.5 mg/kg
Procedure: All experiments were followed to the guidelines of the Laboratory Animal Unit of the University of Hong Kong. Ten mice were randomly divided into two groups (5 mice for each group) for two different treatment conditions.
Around 4×10^6 of cancer cells in 100 μL of PBS were injected into right back flanks of the mice through subcutaneous injection. […] The size of the tumors were measured by a ruler every 2-3 days until the mice were sacrificed. The longest diameter (a) and shortest diameter (b) of the tumor would be picked up and the volume of the tumor could be calculated through the following formula: V=0.52×ab^2
It should be noted that the body weight of the mice were also be recorded in order to examine the side effect of the drugs.
To calculate the inhibition effect of the drug, the ratio of enlargement of tumor volume between the drug treatment group and control group would be applied in the following formula:
where Vt and Vt′ are the tumor volumes of drug treatment and control group respectively; V0 and V0′ are the tumor volume at the 0 day of drug treatment and control group respectively.

chicken CAM = experiment: Chorioallantoic membrane (CAM) assay, ex vivo angiogenesis; details: VEGF 50 ng/mL, one day
Procedure: The effect of Pt complex on the ex vivo angiogenesis was determined by chorioallantoic membrane (CAM) assay. Briefly, fertilized chicken eggs were incubated at 37° C. in a humidified incubator with forced air circulation. After 5-6 days, eggs were cracked open and methylcellulose discs containing different concentrations of 1d (40 μl/egg) and VEGF (50 ng/mL) were gently implanted on top of chicken CAM. After one day incubation, the CAM was observed under a microscope (Olympus BX 40) and photographed. VEGF treatment group was used as a positive control. Three eggs per group were used in each experiment and three independent experiments were performed.

HUVECs [3] = experiment: Conditioned medium (VEGF)-mediated transwell invasion; format: cell-based, human; details: MDA-MB-231 conditioned medium VEGF 13.4 ng/mL, 24 h, sub-cytotoxic
Procedure: (§1) Human umbilical vein endothelial cells (HUVEC) were cultured in endothelial cell growth medium (ECGM): M199 medium (Life Technologies, Invitrogen) supplemented with 15 vol % fetal bovine serum at 37° C. in a humidified (5% CO2, 95% air) atmosphere.
Effects of Pt complex on the invasion of MDA-MB-231 or HUVECs cells were performed on Transwell Boyden chamber (8 μm pore, Corning, Lowel, Mass.) pre-coated with matrigel for 4 h at 37° C. The cell suspension (2.5×10^5 cells/ml, 100 μL) in serum free medium (SFM) was placed to the upper compartment of chamber. The bottom chambers were supplemented with 500 μl complete medium (10 vol % FBS) or conditioned medium (with VEGF=13.4 ng/ml from MDA-MB-231 cells) containing indicated concentrations of Pt complex. After incubated for 24 h, the non-migrant cells from the upper face were scraped using a cotton swab. The invaded cells on the lower face were fixed with methanol, stained with Giemsa, photographed by a phase-contrast microscope (200×, Nikon TS 100). The invaded cells were quantified by manual counting and inhibition ratio was expressed as % of control.

[4] = system: MDA-MB-231 xenograft tumor tissues; experiment: Immunohistochemical analysis of tumor tissues from treated mice; format: in vivo, nude mice; details: 2.5 and 5.0 mg/kg
HUVECs [5] = experiment: Conditioned medium (VEGF)-mediated migration; format: cell-based, human; details: MDA-MB-231 conditioned medium VEGF 13.4 ng/mL, 24 h, sub-cytotoxic
Procedure: as §1

in vitro = format: cell-based; details: mouse
Procedure: (§2) At the same time, the cell viability under the same condition was determined by MTT assay. Again, around 4×10^4 MS-1 cells in 100 μL DMEM medium was pre-mixed with different concentrations of complex and they were seeded into 96-well plate. After 2 h, the medium was removed and fresh medium with 10% MTT was added per well and the plate was incubated for 4 h at 37° C. in a humidified atmosphere of 5% CO2. In order to solubilize the formazan for absorbance readings, 100 μl of SDS (0.1 g/ml, 0.01 M HCl) was added per well and the plate was kept in a dark and humidified chamber overnight. Finally, the absorbance at 580 nm of each well was monitored by microtiter plate reader. Each experiment was repeated three times and the results were expressed as means±standard deviation (SD).

MS1 cells [6] = experiment: in vitro; format: cell-based
Procedure: as §2

[7] = system: p15, cyclin D1/D3, CDK 4/6 in MDA-MB-231 cells; experiment: Western blot of G0/G1 phase-related proteins; format: cell-based, human; details: 24 h
Procedure: (§3) MDA-MB-231 cells (5×10^5 cells) were incubated with Pt compound and washed with phosphate-buffered saline (PBS), lysed with radioimmunoprecipitation assay buffer (1% Triton X-100, 10% glycerol, 150 mM NaCl, 5 mM sodium fluoride, 1 mM sodium vanadate and protein inhibitor cocktail) for 15 min at 4° C. The cell lysates were centrifuged at 13,000 rpm for 15 min at 4° C. The protein concentrations of the extracts were determined using a BCA protein assay kit (Beyotime, Haimen, China). Specific amount of protein sample (30 μg) was then boiled for 5 min in a 5× sample buffer (50 mM Tris (pH 7.4), 4% sodium dodecyl sulfate (SDS), 10% glycerol and 50 μg/mL bromophenol blue) at a volume ratio of 4:1. Protein samples were subjected to SDS-polyacrylamide gel electrophoresis (PAGE), transferred to polyvinylidene difluoride membranes and immunoblotted with primary anti-bodies. After further incubation with horseradish peroxidase (HRP)-conjugated secondary antibody, the blot was stained with a chemiluminescent detection reagent and subsequently analyzed by enhanced chemiluminescence. Protein expression was visualized on Kodak Biomax X-ray film.

[8] = system: PARP, caspases 3 and 9 in MDA-MB-231 cells; experiment: Western blot of apoptosis-related proteins; format: cell-based, human; details: 48 h
Procedure: as §3

HeLa cells [9] = experiment: JC1 staining (mitochondrial membrane potential); format: cell-based, human; details: with increasing dosage, 2 h
[10] = system: FAK, ERK, Akt in MDA-MB-231 cells; experiment: Western blot of phosphorylated and total FAK, ERK and Akt; format: cell-based, human
Procedure: as §3

[11] = system: PERK, eIF2α, CHOP in MDA-MB-231 cells; experiment: Western blot of ER stress-related proteins; format: cell-based, human; details: 5 uM for 6, 12, 24 and 48 h
Procedure: as §3

HUVECs [12] = experiment: Conditioned medium (VEGF)-mediated tube formation; format: cell-based, human; details: MDA-MB-231 conditioned medium VEGF 13.4 ng/mL, 24 h, sub-cytotoxic
Procedure: as §1

HeLa cells [13] = experiment: Confocal fluorescence microscopy co-localization with organelle probes; format: cell-based, human; details: 1b 5 μM
Procedure: HeLa cells (2×10^5 cells) were seeded in a one chamber slide (Nalgene; Nunc) with culture medium (2 mL per well) and incubated at 37° C. in a humidified atmosphere of 5% CO2/95% air for 24 h. After treating with 1b (5 μM) for 1 h, ER-tracker™ red (1 μM), Mitotracker® deep red (50 nM) or Lysotracker® deep red (50 nM) were incubated with cells for 10 min, and then the cells were washed with PBS twice. Confocal fluorescence images were captured using a Carl Zeiss LSM510 Meta confocal microscope with the use of 488 and 543 nm/633 nm lasers for the excitation of complex 1b and red/deep red tracker respectively, under a Plan-Apochromat 63×1.40NA oil-immersion objective.

[14] = Blood biochemistry, systemic toxicity; details: treated vs untreated mice bearing MDA-MB-231 xenografts
[15] = system: uPA, MMP-9, TIMP-1 in MDA-MB-231 cells; experiment: Western blot of uPA, MMP-9 and TIMP1; format: cell-based, human
Procedure: as §3

MS1 cells [16] = experiment: Tube formation assay; format: cell-based; details: 3 h, sub-cytotoxic concentrations
Procedure: The In Vitro Angiogenesis Kit (CaymanChemical) was used in the tube formation assay. Firstly, the ECMatrix solution and 10× Diluent Buffer were mixed in 9:1 (v/v) ratio on ice. Then 50 μL of mixture was transferred into each well of 96-well plate and incubated at 37° C. for 1 h for polymerization. Then, around 4×10^4 of MS-1 cells in 100 μL DMEM medium was pre-mixed with different concentrations of complex and that cell-complex containing medium was added on the top of the polymerized matrix. […]

MiHa = experiment: MTT assay, in vitro cytotoxicity, non-tumorigenic hepatocyte; format: cell-based, human; details: 72 h
Procedure: (§4) The cell lines were maintained in cell culture media (Minimum essential medium (MEM) for HeLa; and Dulbecco's modified eagle medium (DMEM) for MDA-MB-231 and MiHa, Roswell Park Memorial Institute (RPMI) medium for NCI-H460 and HCT116 supplemented with fetal bovine serum (10 vol %), streptomycin (100 μg/ml) and penicillin (100 U/ml) in an incubator (5% CO2) at 37° C.
(§5) The inhibition of cell growth by different metal complexes were determined by MTT assay. Firstly, 4×10^3 to 8×10^3 cells were seeded on 96-well culture plates for 24 h. Then, different concentrations of complex was added into different wells by serial dilution and the cells were incubated with complex for 48-72 h. After that, 10 μl of MTT solution (5 mg/ml) was added per well and the plate was incubated for 4 h at 37° C. in a humidified atmosphere of 5% CO2. Viable cells with active metabolism converted MTT into a purple colored formazan product. In order to solubilize the formazan for absorbance readings, 100 μl of SDS (0.1 g/ml, 0.01 M HCl) was added per well and the plate was kept in a dark and humidified chamber overnight. Finally, the absorbance at 580 nm of each well was monitored by microtiter plate reader.
The growth inhibition by a specific complex was represented by IC50 (concentration of a complex causing 50% inhibition of cell growth). […]

HeLa = experiment: MTT assay, in vitro cytotoxicity; format: cell-based, human; details: 72 h
Procedure: as §4, §5
(§6) The growth inhibition by a specific complex was represented by IC50 (concentration of a complex causing 50% inhibition of cell growth). Each experiment was repeated three times and the results were expressed as means±standard deviation (SD).

NCI-H460 = experiment: MTT assay, in vitro cytotoxicity; format: cell-based, human; details: 72 h
Procedure: as §4, §5, §6

HCT116 = experiment: MTT assay, in vitro cytotoxicity; format: cell-based, human; details: 72 h
Procedure: as §4, §5, §6

[17] = different concentrations 24 h or 2 μM over time
[18] = increasing concentration (24 h) or incubation time (2 μM)

N#CC(=C(/N)Sc1ccccc1N)/C(C#N)=C(\N)Sc1ccccc1N [Complex U0126, reference compound]
inhibition of invasion, agent alone (MDA-MB-231 cells [1]): notable inhibition | cell growth inhibition, agent alone (MDA-MB-231): insignificant cell growth inhibitory effects | inhibition of migration, agent alone (MDA-MB-231 cells [2]): notable inhibition

CCCCN1C=CN(CCCC)[CH]1[Pt]12[n]3c(c4ccccc4c3=Nc3cccc[n+]31)=Nc1cccc[n+]12 [Complex 1b]
death or body weight loss of mice during the treatment (MDA-MB-231 xenografts): did not cause any death or body weight loss | ex vivo angiogenesis in CAM assay (chicken CAM): effective ex vivo anti-angiogenic properties | CM-mediated invasion of HUVECs (HUVECs [3]): significantly suppressed | CD34 staining, blood vessel formation in tumors [4]: significant inhibition of blood vessel formation | DNA fragmentation (TUNEL assay) in tumor tissues [4]: higher levels | caspase-3 in tumor tissues [4]: higher levels | expression of Ki67 in tumor tissues ([4]; vs control mice): decrease | inhibition of invasion, agent alone (MDA-MB-231 cells [1]): notable inhibition | invasion of MDA-MB-231 cells (MDA-MB-231 cells [1]; sub-cytotoxic concentrations, 24 h): significant inhibition | CM-mediated migration of HUVECs (HUVECs [5]): significantly suppressed | viability at 3 h (in vitro): > 90% | cell death of MS1 cells (MS1 cells [6]): no significant cell death | cyclin D1/D3 and CDK 4/6 expression [7]: down-regulation | p15 expression [7]: stimulation | cleavage of PARP and caspases 3 and 9 [8]: cleaved | growth inhibition at the concentrations of the migration assay (MDA-MB-231; 0.25-1 μM): insignificant growth inhibition | cell growth inhibition, agent alone (MDA-MB-231): insignificant cell growth inhibitory effects | JC1 ratio of orange to green fluorescence (HeLa cells [9]): decrease | inhibition of migration, agent alone (MDA-MB-231 cells [2]): notable inhibition | migration of MDA-MB-231 cells (MDA-MB-231 cells [2]; sub-cytotoxic 0.25-1 μM, 24 h): effectively inhibited | phosphorylation of FAK at Tyr397 [10, 17]: significantly suppress | phosphorylation of FAK at Tyr925 and Tyr576/577 [10, 17]: moderately inhibited | total protein level of FAK [10, 17]: little effect | phosphorylation of Akt ([10]; dose- and time-dependent): significantly inhibited | phosphorylation of ERK ([10]; dose- and time-dependent): significantly inhibited | CHOP level [11]: stimulated | phosphorylated PERK level [11]: significant up-regulation | phosphorylated eIF2α level [11]: stimulated | CM-mediated tube formation of HUVECs (HUVECs [12]): significantly suppressed | Pearson's correlation coefficient for co-localization with ER-Tracker (HeLa cells [13]): 0.83 | blood glucose (GLU) [14]: higher level | blood urea nitrogen (BUN) [14]: higher level | plasma level of aspartate aminotransferase (AST) [14]: lower | plasma level of blood fat (CHOL) [14]: lower | plasma level of creatine kinase (CK) [14]: lower | expression of TIMP-1 ([15]; 24 h): moderately increased | expression level of MMP-9 [15, 18]: decreased significantly | expression level of uPA [15, 18]: decreased significantly | angiogenesis (tube formation) of MS1 cells (MS1 cells [16]): significant inhibition

N.N.[Cl][Pt][Cl] [Cisplatin, cis-diamminedichloroplatinum]
IC50 (MDA-MB-231; MTT, 72 h): 77.2 ± 7.82 µM | IC50 (MiHa): > 100 µM | IC50 (HeLa): 12.9 ± 3.84 µM | IC50 (NCI-H460): 24.9 ± 3.19 µM | IC50 (HCT116): 11.8 ± 1.36 µM
